The values below come from patent US8921421B2, “Inhibitors of dimethylarginine dimethylaminohydrolase” (Christian-Albrechts-Universitaet Zu Kiel, priority 2008, dated 2014).

Assay type in all cases: biochemical
The target of assay [1] is T1, hDDAH-1 (Homo sapiens (Human), UniProt O94760). Nature of the assay: Determination of the IC50 value (plate-reader assay). Conditions: NMMA 300 μM, 4 μg recombinant hDDAH-1, 30 min 37° C.; determined at least twice.
Experimental: The samples for the plate-reader assay were incubated directly on a 96-well microtiter plate. An incubation mixture consisted of 150 μl of 50 mM potassium phosphate buffer pH 7.4 with NMMA in a final concentration of 300 μM. The inhibitor was added in five different concentrations and the reaction was started by adding 4 μg of recombinant hDDAH-1. In addition, two mixtures without added inhibitor were incubated. The plate was closed with a lid and incubated for 30 minutes on a plate incubator (shaker DTS-4, LTF-Labortechnik GmbH, Wasserburg, Germany) at 37° C. The reactions were stopped using 200 μl of the Colder reagent and the citrulline that had formed was derivatised (see derivatisation for plate-reader assay). The IC50 value was then calculated by means of SigmaPlot 8.0 (SPSS Chicago, USA). Derivatisation was carried out on particularly heat-stable 96-well microtiter plates. 200 μl of the Colder reagent was added to the samples (150 μl) and to prevent evaporation, the plate was closed with a heat-stable adhesive film (Nunc, Wiesbaden, Germany). Colour formation then took place in the drying oven at 95° C. for 15-20 minutes. Before photometric measurements were taken, there was a wait until the plate had reached room temperature and then the colour intensity at 540.5 nm (Carry 50 microplate reader, Varian, Darmstadt, Germany) was measured.
The target of assay [2] is T1, hDDAH-1. The assay can be described thus: In vitro hDDAH-1 assay (HPLC), inhibition at 1 mM inhibitor. To be noted: inhibitor 1 mM, NMMA 200 μM, 2 μg hDDAH-1, 30 min 37° C.; MV±SD of at least four incubations. How it is done:
This assay was used to determine the inhibiting effect of the inhibitors in a concentration of 1 mM. A standard incubation mixture consisted of 75 μl of 50 mM potassium phosphate buffer pH 7.4 and contained NMMA in a concentration of 200 μM. The inhibitors were used in final concentrations of 1 mM. By adding 2 μg of hDDAH-1, the reaction was started and the samples were incubated for 30 minutes at 37° C. in, a shaking water bath. The reaction was then stopped by adding 75 μl of acetonitrile, the samples were shaken for 5′ minutes and centrifuged (12,000 g, 5 min). The supernatant was added to the HPLC.
In addition, three incubations without added inhibitor were carried out in each case and worked up as specified above. The L-citrulline concentration detected in the samples was set at 100% and the amount of L-citrulline formed in the samples with added inhibitor was referred to this value.
For analysing the samples of the in vitro hDDAH-1 assay (HPLC), o-PA pre-column derivatisation was used with subsequent fluorescence detection of the amino acids. • HPLC plant: Waters Autosampler 717plus, Waters 600 Controller, Waters 600 Pump, Waters Fluorescence Detector 470 and EZChrom Elite Client/Server Measurement and evaluation software (version 2.8.3) • Stationary phase: NovaPak RP-18 column 4 μm (4×150 mm, VDS Optilab) pre-column: Phenomenex C18 (4×3.0 mm) • Temperature: 30° C.
• Detection: Fluorescence: λex: 338 nm; 425 nm. • Injection volume: 10 μl • Derivat. reagent: 50 mg o-PA dissolved in 1 ml of methanol • +9 ml 0.2 M of potassium borate buffer pH 9.4 • +53 μl 2-mercaptoethanol • Derivatisation: The auto sampler was programmed such that 10 μl of the sample were mixed with 14 μl of the derivatisation reagent and could react for 3 minutes at room, temperature prior to injection. Retention times: • L-citrulline 12.2±0.3 min • NMMA 15.8±0.4 min • Methylamine 23.4±0.1 min

In assay [3] the target is T1, hDDAH-1. The assay can be described thus: Determination of the Ki value (plate-reader assay). Conditions: five NMMA concentrations (50-1250 μM), recombinant hDDAH-1; determined at least twice.
Experimental: The Ki value was determined as described for the IC50 value, with the difference that five different NMMA concentrations (50, 100, 300, 750 and 1250 μM) were used. The incubations were carried out such that each NMMA concentration was in each case incubated twice with each of the five inhibitor concentrations. On top of this, incubations using the different NMMA concentrations were carried out without added inhibitor.
For each inhibitor concentration, using SigmaPlot 8.0 (SPSS Inc., Chicago, USA) the respective apparent Km value and Vmax were determined. Via secondary plotting of the inhibitor concentrations versus Km/Vmax the Ki value was determined by extrapolation of the least-squares lines onto the abscissa.
Derivatisation was carried out on particularly heat-stable 96-well microtiter plates. 200 μl of the Colder reagent was added to the samples (150 μl) and to prevent evaporation, the plate was closed with a heat-stable adhesive film (Nunc, Wiesbaden, Germany). Colour formation then took place in the drying oven at 95° C. for 15-20 minutes. Before photometric measurements were taken, there was a wait until the plate had reached room temperature and then the colour intensity at 540.5 nm (Carry 50 microplate reader, Varian, Darmstadt, Germany) was measured. Measurement took place during 20 minutes since the reaction product is not stable (Knipp and Vasak 2000).

T1 sequence (O94760 whole entry): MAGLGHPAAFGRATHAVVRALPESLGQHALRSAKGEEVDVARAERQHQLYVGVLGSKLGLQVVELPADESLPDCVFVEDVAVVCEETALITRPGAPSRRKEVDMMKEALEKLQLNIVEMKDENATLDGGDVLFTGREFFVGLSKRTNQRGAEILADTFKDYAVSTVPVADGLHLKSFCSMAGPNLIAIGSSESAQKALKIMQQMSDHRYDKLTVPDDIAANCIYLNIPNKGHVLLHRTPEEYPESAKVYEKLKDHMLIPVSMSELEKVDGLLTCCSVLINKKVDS

In the case of `COCC/N=C(/N)NCCCCN` [Substance 3, N-(4-aminobutyl)-N′-(2-methoxyethyl)guanidine bis(trifluoracetate)], the concentration for half-maximal inhibition (IC50) (as a rule, the midpoint of a concentration-inhibition curve) at hDDAH-1 [1] came out at 70 ± 16 µM. Moreover, the inhibition (in general, the percentage by which the read-out fell short of the control) at 1000 µM on hDDAH-1 [2] came out at 80 ± 5%. At hDDAH-1 [3], the Ki (commonly a dissociation constant, usually derived from enzyme kinetics or from competition with a known ligand) came out at 18 ± 6 µM.

Consider `C=CCC(=N)NCCCCN` [Substance 5, N-(4′-aminobutyl)but-3-enamidine bis(trifluoracetate)], for which the inhibition at 1000 µM on hDDAH-1 [2] is 40 ± 6%.

On to `COCCNC(=N)NCCC[C@H](N)C(=O)O` [Substance L-257, N^ω-(2-methoxyethyl)-L-arginine, reference compound], for which, at hDDAH-1 [2], 1000 µM produced 89 ± 2% inhibition.
